Source: the NIST ThermoML archive (doi:10.1021/je700287u)

Assay: xn = mol fraction of the nth substance listed
Conditions: Liquid

CN(CCO)CCO [N-methyldiethanolamine] + O
Conditions | mass density [kg/m3]
323.09 K, 3015 kPa, x1 = 0.1302 | 1027.4
323.09 K, 3997 kPa, x1 = 0.0369 | 1002.4
323.09 K, 4003 kPa, x1 = 0.1302 | 1027.8
323.09 K, 4998 kPa, x1 = 0.0369 | 1002.7
323.09 K, 4999 kPa, x1 = 0.1302 | 1028.1
323.09 K, 5998 kPa, x1 = 0.1302 | 1028.5
323.09 K, 6003 kPa, x1 = 0.0369 | 1003.1
323.09 K, 6993 kPa, x1 = 0.0369 | 1003.5
323.09 K, 6998 kPa, x1 = 0.1302 | 1028.9
323.09 K, 7994 kPa, x1 = 0.0369 | 1004
323.09 K, 7999 kPa, x1 = 0.1302 | 1029.3
323.09 K, 8996 kPa, x1 = 0.0369 | 1004.4
323.09 K, 8998 kPa, x1 = 0.1302 | 1029.7
323.09 K, 9995 kPa, x1 = 0.1302 | 1030.1
323.09 K, 9997 kPa, x1 = 0.0369 | 1004.8
323.09 K, 10986 kPa, x1 = 0.0369 | 1005.2
323.09 K, 10997 kPa, x1 = 0.1302 | 1030.4
323.09 K, 11988 kPa, x1 = 0.0369 | 1005.6
323.09 K, 11998 kPa, x1 = 0.1302 | 1030.8
323.09 K, 12997 kPa, x1 = 0.0369 | 1006
323.09 K, 13005 kPa, x1 = 0.1302 | 1031.2
323.09 K, 13999 kPa, x1 = 0.0369 | 1006.4
323.09 K, 14003 kPa, x1 = 0.1302 | 1031.6
323.09 K, 14989 kPa, x1 = 0.0369 | 1006.8
323.09 K, 14990 kPa, x1 = 0.1302 | 1032
323.09 K, 15996 kPa, x1 = 0.1302 | 1032.3
323.09 K, 16002 kPa, x1 = 0.0369 | 1007.1
323.09 K, 16988 kPa, x1 = 0.0369 | 1007.6
323.09 K, 16999 kPa, x1 = 0.1302 | 1032.7
323.09 K, 17990 kPa, x1 = 0.0369 | 1007.9
323.09 K, 17996 kPa, x1 = 0.1302 | 1033.1
323.09 K, 18988 kPa, x1 = 0.1302 | 1033.4
323.09 K, 18996 kPa, x1 = 0.0369 | 1008.3
323.09 K, 19995 kPa, x1 = 0.0369 | 1008.7
323.09 K, 20004 kPa, x1 = 0.1302 | 1033.8
323.1 K, 1009 kPa, x1 = 0.0893 | 1019.6
323.1 K, 2006 kPa, x1 = 0.0893 | 1020
323.1 K, 3012 kPa, x1 = 0.0893 | 1020.4
323.1 K, 4011 kPa, x1 = 0.0893 | 1020.8
323.1 K, 5002 kPa, x1 = 0.0893 | 1021.2
323.1 K, 5996 kPa, x1 = 0.0893 | 1021.6
323.1 K, 7006 kPa, x1 = 0.0893 | 1022
323.1 K, 8004 kPa, x1 = 0.0893 | 1022.3
323.1 K, 8991 kPa, x1 = 0.0893 | 1022.7
323.1 K, 9999 kPa, x1 = 0.0893 | 1023.1
323.1 K, 10993 kPa, x1 = 0.0893 | 1023.5
323.1 K, 11992 kPa, x1 = 0.0893 | 1023.8
323.1 K, 13001 kPa, x1 = 0.0893 | 1024.2
323.1 K, 13990 kPa, x1 = 0.0893 | 1024.6
323.1 K, 14980 kPa, x1 = 0.0893 | 1025
323.1 K, 16002 kPa, x1 = 0.0893 | 1025.3
323.1 K, 16990 kPa, x1 = 0.0893 | 1025.7
323.1 K, 17994 kPa, x1 = 0.0893 | 1026.1
323.1 K, 18999 kPa, x1 = 0.0893 | 1026.5
323.1 K, 20002 kPa, x1 = 0.0893 | 1026.8
333.03 K, 1009 kPa, x1 = 0.1302 | 1019.4
333.03 K, 1015 kPa, x1 = 0.0607 | 1006.4
333.03 K, 1998 kPa, x1 = 0.0607 | 1006.8
333.03 K, 2002 kPa, x1 = 0.1302 | 1019.8
333.03 K, 2997 kPa, x1 = 0.1302 | 1020.2
333.03 K, 3013 kPa, x1 = 0.0607 | 1007.2
333.03 K, 3993 kPa, x1 = 0.1302 | 1020.6
333.03 K, 4037 kPa, x1 = 0.0607 | 1007.6
333.03 K, 4997 kPa, x1 = 0.1302 | 1021
333.03 K, 5116 kPa, x1 = 0.0607 | 1008.1
333.03 K, 6002 kPa, x1 = 0.1302 | 1021.4
333.03 K, 6004 kPa, x1 = 0.0607 | 1008.4
333.03 K, 6992 kPa, x1 = 0.0607 | 1008.8
333.03 K, 6992 kPa, x1 = 0.1302 | 1021.8
333.03 K, 8003 kPa, x1 = 0.0607 | 1009.1
333.03 K, 8013 kPa, x1 = 0.1302 | 1022.2
333.03 K, 8975 kPa, x1 = 0.0607 | 1009.6
333.03 K, 9016 kPa, x1 = 0.1302 | 1022.6
333.03 K, 9983 kPa, x1 = 0.0607 | 1009.9
333.03 K, 9993 kPa, x1 = 0.1302 | 1023
333.03 K, 10989 kPa, x1 = 0.1302 | 1023.4
333.03 K, 11029 kPa, x1 = 0.0607 | 1010.4
333.03 K, 12007 kPa, x1 = 0.1302 | 1023.8
333.03 K, 12015 kPa, x1 = 0.0607 | 1010.7
333.03 K, 13003 kPa, x1 = 0.1302 | 1024.1
333.03 K, 13028 kPa, x1 = 0.0607 | 1011.1
333.03 K, 13995 kPa, x1 = 0.1302 | 1024.5
333.03 K, 14020 kPa, x1 = 0.0607 | 1011.5
333.03 K, 15011 kPa, x1 = 0.1302 | 1024.9
333.03 K, 15022 kPa, x1 = 0.0607 | 1011.9
333.03 K, 15996 kPa, x1 = 0.1302 | 1025.3
333.03 K, 16006 kPa, x1 = 0.0607 | 1012.3
333.03 K, 16996 kPa, x1 = 0.0607 | 1012.7
333.03 K, 17011 kPa, x1 = 0.1302 | 1025.7
333.03 K, 17985 kPa, x1 = 0.1302 | 1026.1
333.03 K, 18013 kPa, x1 = 0.0607 | 1013.1
333.03 K, 18991 kPa, x1 = 0.1302 | 1026.4
333.03 K, 19018 kPa, x1 = 0.0607 | 1013.4
333.03 K, 19965 kPa, x1 = 0.0607 | 1013.8
333.03 K, 19993 kPa, x1 = 0.1302 | 1026.8
333.04 K, 1012 kPa, x1 = 0.0369 | 995.9
333.04 K, 1999 kPa, x1 = 0.0369 | 996.3
333.04 K, 2995 kPa, x1 = 0.0369 | 996.7
333.04 K, 4008 kPa, x1 = 0.0369 | 997.2
333.04 K, 4992 kPa, x1 = 0.0369 | 997.6
333.04 K, 5983 kPa, x1 = 0.0369 | 998
333.04 K, 6994 kPa, x1 = 0.0369 | 998.4
333.04 K, 7997 kPa, x1 = 0.0369 | 998.8
333.04 K, 8994 kPa, x1 = 0.0369 | 999.2
333.04 K, 9994 kPa, x1 = 0.0369 | 999.6
